Measurements published in PMC10386076, “Discovery of RC-752, a Novel Sigma-1 Receptor Antagonist with Antinociceptive Activity: A Promising Tool for Fighting Neuropathic Pain” (Pharmaceuticals, 2023).
Entries after “also recorded” stand apart in the source; their conditions may differ.

How the values were obtained:
S1R = target: T1, S1R (Cavia porcellus, UniProt Q60492); test: S1R radioligand displacement binding assay ([3H]-(+)-pentazocine); parameters: species or system guinea pig; conditions: for Selectivity (Ki S2R/Ki S1R): ratio Ki S2R/Ki S1R
T1 construct: tissue Harlan-Winkelmann, Borchen, Germany; host or cells: guinea pig brain membrane homogenate
Description: (R/S)-1a–3e were first evaluated for their binding affinity toward the S1R and S2R in a radioligand displacement assay. […] Nonspecific binding was determined using non-radiolabeled (+)-pentazocine and haloperidol in excess. All the binding experiments were carried out in duplicate. […] Haloperidol was used as a control compound in both assays.
Five guinea pig brains were homogenized with the potter (500–800 rpm, 10 up and down strokes) in 6 volumes of cold 0.32 M sucrose. The suspension was centrifuged at 1200× g for 10 min at 4 °C. […] This procedure was repeated twice. The final pellet was resuspended in 56 volumes of buffer and frozen ([…]) in 1.5 mL portions containing about 1.5 mg protein/mL.
The test compound solutions were prepared by dissolving approximately 10 µmol (usually 2–4 mg) of test compound in dimethyl sulfoxide (DMSO, unless otherwise specified), so that a 10 mM stock solution was obtained. To obtain the required test solutions for the assay, the DMSO stock solution was diluted with the respective assay buffer. The filtermats were presoaked in 0.5% aqueous polyethylenamine solution for 2 h at r.t. before use. All the binding experiments were carried out in duplicate in 96-well multiplates. The concentrations given are the final concentrations in the assay. […] The receptor preparation was always added last. During the incubation, the multiplates were shaken at a speed of 500–600 rpm at the specified temperature. […] During the filtration each well was washed five times with 300 µL of water. Subsequently, the filtermats were dried at 95 °C. The solid scintillator was melted on the dried filtermats at 95 °C for 5 min. After the solidifying of the scintillator at r.t., the trapped radioactivity in the filtermats was measured with the scintillation analyzer. Each position on the filtermat corresponding to one well of the multiplate was measured for 5 min with the [^3H]-counting protocol. The overall counting efficiency was 20%. The IC50 values were calculated with GraphPad Prism 3.0 (GraphPad Software, San Diego, CA, USA) by nonlinear regression analysis. The IC50 values were subsequently transformed into Ki values using the equation of Cheng and Prusoff. All the experiments were carried out in duplicates. Compounds with high S1R affinity were tested in three independent experiments, and their Ki values are given as mean value ± SEM from the three measurements. […] (22.0 Ci/mmol; Perkin-Elmer). […] The nonspecific binding was determined with 10 µM unlabeled (+)-pentazocine.

zebrafish embryos = test: In vivo toxicity in zebrafish embryos; parameters: species or system zebrafish (Danio rerio); conditions: 5 dpf; for embryo phenotype: 0.1 μM and 1 μM; for morphological score: score 5 normal to 0.5 absent; for embryo death at the highest dose: 100 μM
Description: The in vivo toxicity was evaluated using the predictive zebrafish animal model, which is suitable for screening drugs for potential toxicity in the nervous, cardiovascular, and digestive system. Zebrafish embryos were exposed to increasing concentrations (from 0.1 to 100 μM) of compounds (R/S)-1c and (R/S)-1d immediately after the eggs’ fertilization. The mortality rate and the kind of developmental deficiencies were evaluated at 5 days post-fertilization (dpf). […] A decrease in the embryo vitality rate and an increase in the entity of damages to the vital structures became more evident at higher concentrations (Figure 7A, Table S2). Compound (R/S)-1c induced embryo death (100% of embryos) at 10 μM, whereas (R/S)-1d caused the death of 5 embryos out of 10 at the same concentration. Moreover, among the living embryos, morphological abnormalities, mainly affecting the shape of the tail, heart, and skin pigmentation, were observed (Figure 7B–E, Table S2). […] Furthermore, the swim bladder was not well inflated, and oedema was evident.
The Tg(GFAP:GFP) zebrafish (Danio rerio) were a kind gift from the Department of Biology, University of Padova (Italy), and were maintained in a re-circulatory system at 28 °C in a light/dark cycle of 14/10 h. They were fed three times a day with dry food and Artemia. The zebrafish embryos and larvae were used for the experiments until 5 days post-fertilization (dpf); mating between 2 females and 1 male was set up the day before the test. The eggs were preserved from predation by adult fish using a plastic separator in the tanks. The eggs were collected right after spawning and used in the teratogenicity experiments. The zebrafish husbandry procedures were performed according to the Directive 2010/63/EU and in compliance with the local animal welfare regulations (authorization n. prot. 18,311/2016; released by the “Comune di Meldola”, 9 November 2016).
The toxicity evaluation was performed as previously reported. Briefly, the eggs were collected, rinsed out with embryo medium (for 1 L of distilled water: 0.1 g sodium bicarbonate, 0.1 g instant ocean, 0.19 g calcium sulphate) and put in different Petri dishes with the same medium; only the unscathed embryos were selected. Generally, 8 embryos per untreated control and treatment concentrations were cultured. The eggs were treated with an increasing concentration of (R/S)-1c and (R/S)-1d, starting from 1 h post-fertilization. They were incubated at 28 °C for about 5 days (without changing the media) in order to allow exposure to the compounds throughout all development stages. The teratogenic effects were evaluated after 5 days from treatment with morphological and viability observations. The experiment was performed in octuplicate, and the data were assessed using a sample score sheet, as reported by Brannen KC and colleagues.

PC12 cells = test: NGF-induced neurite outgrowth assay in PC12 cells; type: cell-based; conditions: for effect on percentage of differentiated PC12 cells, co-administration with PRE-084: 0.25 μM and 2.5 μM with 10 μM PRE-084, vs PRE-084; for effect on NGF-induced neurite outgrowth, compound alone: 0.25 μM and 2.5 μM, vs NGF
Description: At 80% confluence, the cells were either split to allow a further culture expansion or plated onto 48-well flat-bottom plates previously coated with poly-L-ornithine (Sigma Aldrich, Milan, Italy) at the final concentration of 10 μg/cm^2. The cells were plated at low density (2500 cells/well) to allow proper neurite elongation. The PC12 cells were mechanically detached from the flask to avoid cell-surface receptor cleavage and to preserve the correct binding of NGF to the TrkA receptors. To minimize detachment stress, the cells were left in PM for 24 h to recover. […] PRE-084 (10 µM), an S1R agonist, was used to verify that the effects of the selected compounds were due to the S1R modulation. In CTR conditions, the cells were incubated with the drug vehicle. For all the ligands, two replicates per concentration were performed in at least 3 experiments with different PC12 batches.
After 72 h incubation in DM, the cells were fixed with a 4% paraformaldehyde solution (pH 7.4). To allow the neurite visualization with a bright-field microscope, the cells were stained with the Harris Hematoxylin solution (Sigma Aldrich). After staining, images of six fields per well were acquired with a digital camera linked to a bright-field inverted microscope (Optika) (20× magnification). […] Only the cells bearing a neurite as long as their soma’s diameter were identified as differentiated cells. The number of differentiated cells was expressed as the percentage of differentiated cells over the total number of cells.

T1 sequence (Q60492 whole entry): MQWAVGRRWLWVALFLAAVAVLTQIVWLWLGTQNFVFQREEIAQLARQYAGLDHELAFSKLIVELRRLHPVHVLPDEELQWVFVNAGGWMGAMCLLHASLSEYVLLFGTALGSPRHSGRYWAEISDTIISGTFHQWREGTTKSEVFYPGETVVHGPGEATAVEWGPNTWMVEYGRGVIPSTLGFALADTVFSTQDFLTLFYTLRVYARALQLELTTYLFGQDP

Row | SMILES | Ki (S1R) [nM] | Selectivity (Ki S2R/Ki S1R) (S1R) | embryo phenotype (zebrafish embryos) | morphological score (zebrafish embryos; 0.1 μM) | embryo death (zebrafish embryos; 10 μM) | embryo death at the highest dose (zebrafish embryos) | effect on percentage of differentiated PC12 cells, co-administration with PRE-084 (PC12 cells) | effect on NGF-induced neurite outgrowth, compound alone (PC12 cells) | morphological score (zebrafish embryos; 1 μM) | death of embryos (zebrafish embryos; 10 μM) | morphological score (zebrafish embryos; 10 μM) | effect on percentage of differentiated PC12 cells, co-administration with PRE-084 (PC12 cells; listed as (R/S)-1d)
1 | CN(CCC(CO)c1ccc(-c2ccccc2)cc1)Cc1ccccc1 (centres unmarked) [Compound 1c, 3-([1,1’-biphenyl]-4-yl)-N-benzyl-4-hydroxy-N-methylbutanamine] | 0.95 ± 0.08 | 127 | normal and vital phenotype | < 4 | 100 % of embryos | death of all the zebrafish embryos | significantly reduced | did not significantly enhance |  |  |  | 
2 | OCC(CCN1CCCCC1)c1ccc(-c2ccccc2)cc1 (centres unmarked) [Compound 1d, 2-([1,1’-biphenyl]-4-yl)-4-(piperidin-1-yl)butan-1-ol] |  | 58 | normal and vital phenotype | 5 |  | death of all the zebrafish embryos |  | did not significantly enhance | 4 | 5 embryos out of 10 | 1 | significantly reduced; also recorded: most effective
